The values below come from patent US20250034196A1, “ESTER DERIVATIVES OF N4-HYDROXYCYTIDINE AND USE THEREOF” (priority 2021, published 2025).

Usually EC50 stands for the concentration needed to bring the measured effect to its halfway point. A high value points to lower potency in that assay. In general, EC90 refers to the concentration at which the effect reaches the 90% level. Higher therefore signals weaker potency.

Series [1] concerns SARS-CoV-2 Omicron B.1.1.529 variant. As to conditions: Vero E6.
Series [2] has the same test system. As to the kind of experiment: microbe, parasite or virus in culture. The note with it: Severe acute respiratory syndrome coronavirus 2, Vero C1008, 96 h.

As to `CC(C)C(=O)OC[C@H]1O[C@@H](n2ccc(NO)nc2=O)[C@H](O)[C@@H]1O` [Molnupiravir], the “SI (CC50/EC50)” value in series [1] was more than 6.65. In series [2], this molecule had an EC50 of 15.1 µM and an EC90 of 23.4 µM.
For the molecule `CC(=O)ONc1ccn([C@@H]2O[C@H](CO)[C@@H](O)[C@H]2O)c(=O)n1` [EX-2], the “SI (CC50/EC50)” value in series [1] is 11.38. Besides, in series [2], the EC50 stood at 1.6 µM and the 90% effect level (EC90) was put at 2.48 µM.
